Laboratory results as given in PubChem BioAssay AID248 (DTP/NCI, 2004).
Toxic doses and inconclusive results are not listed. Rule as the data show it: active = T/C of 150% or more; inactive = T/C below 125%.

Tested on: L1210 leukemia ip in BDF1 mice, survival T/C
Experiment: NCI In Vivo Anticancer Drug Screen. Data for tumor model L1210 Leukemia (intraperitoneal) in B6D2F1 (BDF1) mice
Details: endpoint: mean survival time, higher = longer survival
Outline: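 Read-out is survival time, reported as the treated-group measurement over the vehicle-control measurement.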

[1] = dose: 200.0 mg/kg/injection, schedule: Q01DX001 (ip), vehicle: saline
[2] = dose: 400.0 mg/kg/injection, schedule: Q01DX001 (ip), vehicle: saline
[3] = dose: 100.0 mg/kg/injection, schedule: Q04DX002 (ip), vehicle: Klucel (hydroxypropylcellulose) (HPC)
[4] = dose: 200.0 mg/kg/injection, schedule: Q04DX002 (ip), vehicle: Klucel (hydroxypropylcellulose) (HPC)
[5] = dose: 400.0 mg/kg/injection, schedule: Q04DX002 (ip), vehicle: Klucel (hydroxypropylcellulose) (HPC)
[6] = dose: 50.0 mg/kg/injection, schedule: Q01DX001 (ip), vehicle: saline
[7] = dose: 50.0 mg/kg/injection, schedule: Q01DX009 (ip), vehicle: saline
[8] = dose: 100.0 mg/kg/injection, schedule: Q01DX001 (ip), vehicle: saline
[9] = dose: 100.0 mg/kg/injection, schedule: Q01DX009 (ip), vehicle: saline
[10] = dose: 100.0 mg/kg/injection, schedule: Q01DX001 (ip), vehicle: Klucel (hydroxypropylcellulose) (HPC)
[11] = dose: 200.0 mg/kg/injection, schedule: Q01DX001 (ip), vehicle: Klucel (hydroxypropylcellulose) (HPC)
[12] = dose: 400.0 mg/kg/injection, schedule: Q01DX001 (ip), vehicle: Klucel (hydroxypropylcellulose) (HPC)
[13] = dose: 100.0 mg/kg/injection, schedule: Q04DX003 (ip), vehicle: saline
[14] = dose: 200.0 mg/kg/injection, schedule: Q04DX003 (ip), vehicle: saline
[15] = dose: 400.0 mg/kg/injection, schedule: Q04DX003 (ip), vehicle: saline
[16] = dose: 100.0 mg/kg/injection, schedule: Q04DX003 (ip), vehicle: saline with Tween-80
[17] = dose: 200.0 mg/kg/injection, schedule: Q04DX003 (ip), vehicle: saline with Tween-80
[18] = dose: 400.0 mg/kg/injection, schedule: Q04DX003 (ip), vehicle: saline with Tween-80

Measured: T/C

N=C(N)CSS(=O)(=O)O
inactive: dose: 12.5 mg/kg/injection, schedule: Q01DX009 (ip), vehicle: Klucel (hydroxypropylcellulose) (HPC) 107 % of control | dose: 12.5 mg/kg/injection, schedule: Q04DX002 (ip), vehicle: Klucel (hydroxypropylcellulose) (HPC) 104 % of control | dose: 25.0 mg/kg/injection, schedule: Q01DX009 (ip), vehicle: Klucel (hydroxypropylcellulose) (HPC) 107 % of control | dose: 25.0 mg/kg/injection, schedule: Q04DX002 (ip), vehicle: Klucel (hydroxypropylcellulose) (HPC) 101 % of control | dose: 50.0 mg/kg/injection, schedule: Q04DX002 (ip), vehicle: Klucel (hydroxypropylcellulose) (HPC) 93 % of control

O=C(Cc1c[nH]c2ccccc12)N/N=C\c1c[nH]c2ccccc12
inactive: [1] 97 % of control | [2] 92 % of control

COc1ccc(C(O)c2cc3ccccc3n2S(=O)(=O)c2ccccc2)cc1 (stereo unspecified)
inactive: [3] 95 % of control | [4] 106 % of control | [5] 98 % of control

CCCCCCCCCCNCCC(=O)O
inactive: dose: 12.5 mg/kg/injection, schedule: Q01DX001 (ip), vehicle: saline 94 % of control | dose: 25.0 mg/kg/injection, schedule: Q01DX001 (ip), vehicle: saline 94 % of control | dose: 25.0 mg/kg/injection, schedule: Q01DX009 (ip), vehicle: saline 104 % of control | dose: 37.5 mg/kg/injection, schedule: Q01DX009 (ip), vehicle: saline 104 % of control | [6] 100 % of control | [7] 102 % of control | dose: 75.0 mg/kg/injection, schedule: Q01DX001 (ip), vehicle: saline 101 % of control | dose: 75.0 mg/kg/injection, schedule: Q01DX009 (ip), vehicle: saline 88 % of control | [8] 101 % of control | [9] 104 % of control | dose: 150.0 mg/kg/injection, schedule: Q01DX001 (ip), vehicle: saline 94 % of control

COc1cc(NC(C)=O)ccn1
inactive: dose: 100.0 mg/kg/injection, schedule: Q04DX003 (ip), vehicle: acetone 89 % of control | dose: 200.0 mg/kg/injection, schedule: Q04DX003 (ip), vehicle: acetone 100 % of control | dose: 400.0 mg/kg/injection, schedule: Q04DX003 (ip), vehicle: acetone 110 % of control

O=C(COc1ccc(Cl)cc1C(=O)O)Nc1cccc(NC(=O)Nc2ccc(S(=O)(=O)F)cc2)c1
inactive: [10] 91 % of control | [11] 101 % of control | [12] 93 % of control

CC1CCC2(C(=O)OC3OC(COC4OC(CO)C(OC5OC(C)C(O)C(O)C5O)C(O)C4O)C(O)C(O)C3O)CCC3(C)C(=CCC4C5(C)CC(O)C(O)C(C)(CO)C5CCC43C)C2C1C (stereo unspecified)
inactive: dose: 100.0 mg/kg/injection, schedule: Q01DX001 (ip), vehicle: saline with Tween-80 98 % of control | dose: 200.0 mg/kg/injection, schedule: Q01DX001 (ip), vehicle: saline with Tween-80 98 % of control | dose: 400.0 mg/kg/injection, schedule: Q01DX001 (ip), vehicle: saline with Tween-80 97 % of control

CCCCCCCCCCCC[n+]1ccc(C)cc1C
inactive: dose: 0.01 mg/kg/injection, schedule: Q01DX015 (ip), vehicle: saline 92 % of control | dose: 0.02 mg/kg/injection, schedule: Q01DX015 (ip), vehicle: saline 98 % of control | dose: 0.04 mg/kg/injection, schedule: Q01DX015 (ip), vehicle: saline 97 % of control | dose: 0.08 mg/kg/injection, schedule: Q01DX015 (ip), vehicle: saline 98 % of control | dose: 0.1 mg/kg/injection, schedule: Q01DX009 (ip), vehicle: saline 97 % of control | dose: 0.1 mg/kg/injection, schedule: Q04DX003 (ip), vehicle: saline 102 % of control | dose: 0.2 mg/kg/injection, schedule: Q01DX009 (ip), vehicle: saline 92 % of control | dose: 0.2 mg/kg/injection, schedule: Q04DX003 (ip), vehicle: saline 97 % of control | dose: 0.4 mg/kg/injection, schedule: Q01DX009 (ip), vehicle: saline 101 % of control | dose: 0.4 mg/kg/injection, schedule: Q04DX003 (ip), vehicle: saline 94 % of control | dose: 0.59 mg/kg/injection, schedule: Q01DX009 (ip), vehicle: saline 91 % of control

NNC(=O)C(=O)NN
inactive: [3] 102 % of control | [4] 98 % of control | [5] 93 % of control

OC(/N=C/c1ccccc1)C(Cl)(Cl)Cl (stereo unspecified)
inactive: [3] 103 % of control | [4] 88 % of control | [5] 114 % of control

CCOC(=O)C(NC(C)=O)(C(=O)OCC)C(C)C(O)c1ccc(OC)c(OC)c1O (stereo unspecified)
inactive: [13] 92 % of control | [14] 113 % of control | [15] 103 % of control

O=C1NC(=O)C(c2ccc(O)cc2)N1 (stereo unspecified)
inactive: [6] 105 % of control | [8] 100 % of control | dose: 100.0 mg/kg/injection, schedule: Q01DX009 (ip), vehicle: saline with Tween-80 91 % of control | [16] 103 % of control | [1] 97 % of control | dose: 200.0 mg/kg/injection, schedule: Q01DX009 (ip), vehicle: saline with Tween-80 87 % of control | [17] 100 % of control | [2] 108 % of control | [18] 94 % of control

CCOC(=O)/C=C1\CCCc2cc(C)c(C)cc21
inactive: dose: 100.0 mg/kg/injection, schedule: Q04DX003 (ip), vehicle: other 105 % of control | dose: 200.0 mg/kg/injection, schedule: Q04DX003 (ip), vehicle: other 94 % of control | dose: 400.0 mg/kg/injection, schedule: Q04DX003 (ip), vehicle: other 104 % of control

Clc1ccc(OCOc2ccc(Cl)cc2)cc1
inactive: dose: 100.0 mg/kg/injection, schedule: Q04DX003 (ip), vehicle: Klucel (hydroxypropylcellulose) (HPC) 106 % of control | dose: 200.0 mg/kg/injection, schedule: Q04DX003 (ip), vehicle: Klucel (hydroxypropylcellulose) (HPC) 98 % of control | dose: 400.0 mg/kg/injection, schedule: Q04DX003 (ip), vehicle: Klucel (hydroxypropylcellulose) (HPC) 92 % of control

ClCCN(CCCl)c1ccc(-n2cnc3c(Cl)ncnc32)cc1
inactive: dose: 32.0 mg/kg/injection, schedule: Q01DX015 (ip), vehicle: carboxymethylcellulose (CMC) 96 % of control | dose: 64.0 mg/kg/injection, schedule: Q01DX015 (ip), vehicle: carboxymethylcellulose (CMC) 96 % of control | dose: 128.0 mg/kg/injection, schedule: Q01DX015 (ip), vehicle: carboxymethylcellulose (CMC) 97 % of control | dose: 256.0 mg/kg/injection, schedule: Q01DX015 (ip), vehicle: carboxymethylcellulose (CMC) 105 % of control

S=C(NCCN1CCOCC1)Nc1ccccc1
inactive: dose: 50.0 mg/kg/injection, schedule: Q01DX001 (ip), vehicle: other 105 % of control | dose: 100.0 mg/kg/injection, schedule: Q01DX001 (ip), vehicle: other 94 % of control | dose: 200.0 mg/kg/injection, schedule: Q01DX001 (ip), vehicle: other 94 % of control | dose: 400.0 mg/kg/injection, schedule: Q01DX001 (ip), vehicle: other 92 % of control

Cc1cccc(NC(N)=O)c1
inactive: [7] 96 % of control | [9] 97 % of control | [13] 95 % of control | dose: 200.0 mg/kg/injection, schedule: Q01DX009 (ip), vehicle: saline 94 % of control | [14] 97 % of control | [15] 94 % of control

Cc1ccccc1-n1c(O)c(N=Nc2ccc(Br)cc2)c(=O)n(-c2ccccc2)c1=S
inactive: [10] 94 % of control | [11] 94 % of control | [12] 91 % of control

O=C(O)CNc1ccc(S(=O)(=O)c2ccc(NCC(=O)O)cc2)cc1
inactive: [8] 102 % of control | [1] 102 % of control | [2] 98 % of control

O=S1c2ccccc2S(=O)c2ccccc21 (stereo unspecified)
inactive: [16] 96 % of control | [17] 91 % of control | [18] 89 % of control

CC12CC3(O)OC(O1)C1(COC(=O)c4ccccc4)C3CC21OC1OC(CO)C(O)C(O)C1O (stereo unspecified)
inactive: dose: 100.0 mg/kg/injection, schedule: Q04DX002 (ip), vehicle: saline 107 % of control | dose: 200.0 mg/kg/injection, schedule: Q04DX002 (ip), vehicle: saline 107 % of control | dose: 400.0 mg/kg/injection, schedule: Q04DX002 (ip), vehicle: saline 114 % of control
